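Cells were grown in 96-well plates and exposed to each compound for 48 hours at five concentrations; endpoints were interpolated linearly between bracketing concentrations, or set to the highest concentration if not reached. TGI denotes the concentration required for complete inhibition of growth.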
Assays:
Assay in all cases: NCI tumour cell line growth inhibition, 48 h
HOP-92 NSCLC = test system: HOP-92 NSCLC
UO-31 renal = test system: UO-31 renal
EKVX NSCLC = test system: EKVX NSCLC
786-0 renal = test system: 786-0 renal
RXF 393 renal = test system: RXF 393 renal
KM12 colon = test system: KM12 colon
HCT-15 colon = test system: HCT-15 colon
KM20L2 colon = test system: KM20L2 colon
TK-10 renal = test system: TK-10 renal
DLD-1 colon = test system: DLD-1 colon
DMS 114 small cell lung = test system: DMS 114 small cell lung
NCI-H460 lung = test system: NCI-H460 lung
MALME-3M melanoma = test system: MALME-3M melanoma
SN12C renal = test system: SN12C renal
COLO 205 colon = test system: COLO 205 colon
A549 NSCLC = test system: A549 NSCLC
M19-MEL melanoma = test system: M19-MEL melanoma
SR leukemia = test system: SR leukemia
SK-MEL-5 melanoma = test system: SK-MEL-5 melanoma
SNB-78 CNS = test system: SNB-78 CNS
MOLT-4 leukemia = test system: MOLT-4 leukemia
SF-295 CNS = test system: SF-295 CNS
HOP-62 NSCLC = test system: HOP-62 NSCLC
SF-539 CNS = test system: SF-539 CNS
XF 498 CNS = test system: XF 498 CNS
NCI-H23 lung = test system: NCI-H23 lung
SW-620 colon = test system: SW-620 colon
SNB-19 CNS = test system: SNB-19 CNS
IGROV1 ovarian = test system: IGROV1 ovarian
SK-OV-3 ovarian = test system: SK-OV-3 ovarian
HCC-2998 colon = test system: HCC-2998 colon
SF-268 CNS = test system: SF-268 CNS
RPMI-8226 leukemia = test system: RPMI-8226 leukemia
UACC-62 melanoma = test system: UACC-62 melanoma
NCI-H226 lung = test system: NCI-H226 lung
ACHN renal = test system: ACHN renal
RXF-631 renal = test system: RXF-631 renal
OVCAR-8 ovarian = test system: OVCAR-8 ovarian
DMS 273 small cell lung = test system: DMS 273 small cell lung
U251 CNS = test system: U251 CNS
SK-MEL-28 melanoma = test system: SK-MEL-28 melanoma
NCI-H522 lung = test system: NCI-H522 lung
HT29 colon = test system: HT29 colon
LXFL 529 NSCLC = test system: LXFL 529 NSCLC
UACC-257 melanoma = test system: UACC-257 melanoma
HOP-18 NSCLC = test system: HOP-18 NSCLC
OVCAR-3 ovarian = test system: OVCAR-3 ovarian
M14 melanoma = test system: M14 melanoma
HCT-116 colon = test system: HCT-116 colon
LOX IMVI melanoma = test system: LOX IMVI melanoma
SNB-75 CNS = test system: SNB-75 CNS
OVCAR-5 ovarian = test system: OVCAR-5 ovarian
SK-MEL-2 melanoma = test system: SK-MEL-2 melanoma
OVCAR-4 ovarian = test system: OVCAR-4 ovarian
HL-60(TB) leukemia = test system: HL-60(TB) leukemia
A498 renal = test system: A498 renal
CAKI-1 renal = test system: CAKI-1 renal
K-562 leukemia = test system: K-562 leukemia
CCRF-CEM leukemia = test system: CCRF-CEM leukemia

Measured: TGI

CC(=O)OC1(C(C)=O)CC2(c3ccccc3)OC1(c1ccccc1)c1ccccc12 (stereo unspecified)
56.7 µM: IGROV1 ovarian
96.8 µM: RPMI-8226 leukemia
21.4 µM: COLO 205 colon
60.2 µM: RXF 393 renal
> 100 µM: HOP-92 NSCLC | EKVX NSCLC | 786-0 renal | KM12 colon | HCT-15 colon | KM20L2 colon | TK-10 renal | DLD-1 colon | NCI-H460 lung | MALME-3M melanoma | SN12C renal | A549 NSCLC | SR leukemia | SNB-78 CNS | SF-295 CNS | SF-539 CNS | NCI-H23 lung | SW-620 colon | SNB-19 CNS | SK-OV-3 ovarian | HCC-2998 colon | SF-268 CNS | ACHN renal | RXF-631 renal | OVCAR-8 ovarian | U251 CNS | SK-MEL-28 melanoma | HT29 colon | LXFL 529 NSCLC | HOP-18 NSCLC | OVCAR-3 ovarian | M14 melanoma | HCT-116 colon | LOX IMVI melanoma | SNB-75 CNS | OVCAR-5 ovarian
29.8 µM: NCI-H522 lung
40.1 µM: MOLT-4 leukemia
43.8 µM: UACC-62 melanoma
25.1 µM: UACC-257 melanoma
33.3 µM: XF 498 CNS
83.2 µM: SK-MEL-2 melanoma
43.2 µM: NCI-H226 lung
8.53 µM: SK-MEL-5 melanoma
80.1 µM: UO-31 renal
80.4 µM: M19-MEL melanoma
22.2 µM: DMS 273 small cell lung
61.5 µM: HOP-62 NSCLC
12.5 µM: DMS 114 small cell lung

NC1(C(=O)O)CCC(C(=O)O)CC1 (stereo unspecified)
> 100 µM: OVCAR-4 ovarian | HOP-92 NSCLC | HL-60(TB) leukemia | UO-31 renal | EKVX NSCLC | 786-0 renal | A498 renal | RXF 393 renal | KM12 colon | KM20L2 colon | TK-10 renal | DLD-1 colon | DMS 114 small cell lung | NCI-H460 lung | MALME-3M melanoma | SN12C renal | COLO 205 colon | A549 NSCLC | M19-MEL melanoma | SR leukemia | CAKI-1 renal | SK-MEL-5 melanoma | SNB-78 CNS | MOLT-4 leukemia | SF-295 CNS | HOP-62 NSCLC | SF-539 CNS | XF 498 CNS | NCI-H23 lung | SW-620 colon | SNB-19 CNS | IGROV1 ovarian | SK-OV-3 ovarian | HCC-2998 colon | SF-268 CNS | K-562 leukemia | RPMI-8226 leukemia | UACC-62 melanoma | NCI-H226 lung | ACHN renal | RXF-631 renal | OVCAR-8 ovarian | DMS 273 small cell lung | U251 CNS | SK-MEL-28 melanoma | NCI-H522 lung | HT29 colon | LXFL 529 NSCLC | UACC-257 melanoma | HOP-18 NSCLC | OVCAR-3 ovarian | M14 melanoma | HCT-116 colon | CCRF-CEM leukemia | LOX IMVI melanoma | SNB-75 CNS | OVCAR-5 ovarian | SK-MEL-2 melanoma

From PubChem BioAssay (NCI)
